pIC50: −log10 of the molar value.
Key:
[1] = system: U937 cell line (human histiocytic lymphoma cell line); assay: U937 cell viability assay (TNF-α + Z-VAD-FMK induced necroptosis); type: cell-based; conditions: Homo sapiens, U-937; U937 cells, hTNF-α 0.1 μg/mL + Z-VAD-FMK 50 μM, 20 hours, CellTiter-Glo
Procedure: U937 cell line (human histiocytic lymphoma cell line): purchased from ATCC (American Type Culture Collection) Cell Bank, cultured in a 5% CO2, 37° C. incubator, and RPMI 1640 medium which contains L-glutamine, 1.5 g/L sodium bicarbonate, 2.383 g/L HEPES solution, 0.11 g/L sodium pyruvate and 4.5 g/L glucose, plus 10% fetal bovine serum (FBS) was used. • RPMI 1640 medium: GIBCO, Cat #A10491-01; • Fetal bovine serum (FBS): GIBCO, Cat #10099-141C; • Dimethyl sulfoxide (DMSO): Sigma, Cat #D2650; • Recombinant Human TNF-alpha Protein (hTNF-α): R&D system, Cat #210-TA-100; • Pan-Caspase inhibitor (Z-VAD-FMK): Selleckchem, Cat #S7023; • CellTiter-Glo 2.0 Cell Viability Assay kit: Promega, Cat #G9242; • Microwell plate reader: Envision, Perkin Elmer; • 96-well plate: Corning, Cat #3917.
The U937 cells at the logarithmic phase were taken out, centrifuged to remove the medium, washed with PRMI 1640 medium containing 1% FBS, and diluted with 1% FBS-containing RPMI 1640 medium to 2.5×10^5 cells/ml, inoculated at 70 μL/well into a 96-well plate, i.e., 1.75×10^4 cells/well. The plate was cultured in a 5% CO2, 37° C. cell incubator. After incubating for 1 hour, the test compound was diluted to the corresponding concentrations using DMSO with 3-fold serial dilution, then the corresponding concentration of DMSO diluted solution was diluted into 1% FBS-containing RPMI 1640 medium, and 10 μL/well of the diluted test compound with different concentrations (final concentration of test compound was 1.0, 0.333, 0.111, 0.037, 0.012, 0.004, 0.0014 and 0.0005 μM, while final concentration of DMSO was 0.3%) or 10 μL/well control solution (3% DMSO) were added to the cell culture system respectively, with the total volume being 80 μL/well; Then 10 μL of Z-VAD-FMK solution diluted with 1% FBS-containing RPMI 1640 medium (final concentration of 50 μM) or 10 μL of control solution (2.5% DMSO) was added to each well, with the total volume being 90 μL/well. The plate was incubated in a 5% CO2, 37° C. cell culture incubator for 1 hour.
(§1) After being cultured for 1 hour, 10 μL of human recombinant TNF-α protein diluted with 1% FBS-containing RPMI 1640 medium (final concentration of 0.1 μg/mL) or 10 μL/well control solution (1% FBS-containing RPMI 1640 medium) was added to each well. The plate was incubated in a 5% CO2, 37° C. cell culture incubator for 20 hours.
(§2) The cell culture plate was taken out from the incubator, and left to stand at room temperature for 30 minutes. Meanwhile, CellTiter-Glo viability assay kit was put from freezer to room temperature, and 50 μL of CellTiter-Glo reagent was added to all wells, the plate was shaken for 1 minutes, protected from light at room temperature for 10 minutes then read the plate on Envision to get the luminescence signal.
(§3) The 96-well plate in the dark was taken out, and the chemiluminescence was determined using the Envision microwell plate reader as the signal value of each well.
(§4) The mean signal value of the wells of the mixed solution of recombinant human TNF-alpha protein (final concentration of 0.1 μg/mL) and Pan-Caspase inhibitor (final concentration of 50 μM) was used as the lower value, and the mean signal value of the wells without stimulation was used as the upper value. According to the signal value of each well, the inhibition rate of each concentration of every compound was calculated, and the IC50 value of compound was obtained by Model 205 in XL-Fit 5.3 software (ID Business Solutions Limited).
(§5) Inhibition rate %=[(Luminescence readout of treated compound−Luminescence readout of positive control)/(Luminescence readout of negative control−Luminescence readout of positive control)]×100%, wherein

[2] = system: L929 cell line (mouse fibroblastoma cell line); assay: L929 cell viability assay (mTNF-α + Z-VAD-FMK induced necroptosis); type: cell-based; conditions: Mus musculus, L929, 20 h, L929 cells, mTNF-α 0.1 μg/mL + Z-VAD-FMK 5 μM, CellTiter-Glo
Procedure: L929 cell line (mouse fibroblastoma cell line): purchased from ATCC (American Type Culture Collection) Cell Bank, cultured in 5% CO2, 37° C. incubator, and MEM medium which contains L-Glutamine, with 10% FBS was used. • MEM medium: GIBCO, Cat #11095080; • Fetal bovine serum (FBS): GIBCO, Cat #10099-141C; • Dimethyl sulfoxide (DMSO): Sigma, Cat #D2650; • 0.25% Trypsin-EDTA: GIBCO, Cat #25200072; • Recombinant Mouse TNF-alpha Protein (mTNF-α): R&D system, Cat #410-MT-050; • Pan-Caspase inhibitor (Z-VAD-FMK): Selleckchem, Cat #S7023; • CellTiter-Glo 2.0 Cell Viability Assay kit: Promega, Cat #G9242; • Microwell plate reader: Envision, Perkin Elmer; • 96-well plate: Corning, Cat #3917.
The L929 cells at the logarithmic phase were taken out, and the supernatant was discarded. After trypsinization and cell shedding, 10% FBS-containing medium was added for neutralization, and the supernatant was discarded after centrifugation. The cells were re-suspended using 10% FBS-containing medium, adjusted to 7×10^4 cells/ml, added to 96-well microplate at 70 μL/well, i.e., 4.9×10^3 cells/well. Then the plate was incubated in a 5% CO2, 37° C. cell incubator overnight.
After incubating overnight, the 96-well plate was taken out, the medium was discarded, and the plate was washed with 1% FBS-containing MEM medium. Then 1% FBS-containing MEM medium was added at 70 μL/well, and the plate was cultured in a 5% CO2, 37° C. cell incubator. After incubating for 1 hour, the test compound was diluted to the corresponding concentrations using DMSO with 3-fold serial dilution, then the corresponding concentration of DMSO diluted solution was diluted into 1% FBS-containing MEM medium, and 10 μL/well of the diluted test compound with different concentrations (final concentrations of test compound were 10, 3.33, 1.11, 0.37, 0.12, 0.04, 0.014 and 0.005 μM, while final concentration of DMSO was 0.3%) or 10 μL/well control solution (3% DMSO) were added to the cell culture system respectively, with the total volume being 80 μL/well. Then 10 μL of Z-VAD-FMK solution diluted with 1% FBS-containing MEM medium (final concentration of 5 μM) or 10 μL of control solution (2.5% DMSO) was added to each well, with the total volume being 90 μL/well. The plate was incubated in a 5% CO2, 37° C. cell culture incubator for 1 hour.
as §1, with “incubating” for “being cultured”, “of” for “of human”, “recombinant mouse” for “recombinant”, “protein solution” for “protein”, “MEM” for “RPMI 1640”, “μL” for “μL/well”
as §2, §3
as §4, with “recombinant mouse” for “recombinant human”, “of 5” for “of 50”
as §5

`CC(C)n1cncc(-c2ccc(C3(NC(=O)c4nnc(Cc5ccccc5)[nH]4)CC3)cc2)c1=O` [Compound 14] showed a pIC50 [1] of 8.52 and a pIC50 [2] of 6.74.

— patent publication US20240002388A1, “PYRIMIDINONE COMPOUNDS AND USES THEREOF” (HUTCHISON MEDIPHARMA LIMITED, priority 2020, published 2024)
